From publication PMC9964746, “Mechanism of Action and Structure–Activity Relationships of Tetracyclic Small Molecules Acting as Universal Positive Allosteric Modulators of the Cholecystokinin Receptor” (Membranes, 2023)
Several values for one entry are separate records, joined by “and”; a condition that tells them apart may be missing. Identical values can stand only once. Non-standard residues stand in square brackets, D forms with d. Residues, ends and D or L forms follow the SMILES beside them. *: point of attachment. sY = N[C@@H](Cc1ccc(OS(=O)(=O)O)cc1)C(=O)O; OCH2CH2Ph = c1ccc(CCO*)cc1; Nle = CCCC[C@H](N)C(=O)O

T1: type 1 cholecystokinin receptor (CCK1R) (UniProt P32238)
T1 sequence: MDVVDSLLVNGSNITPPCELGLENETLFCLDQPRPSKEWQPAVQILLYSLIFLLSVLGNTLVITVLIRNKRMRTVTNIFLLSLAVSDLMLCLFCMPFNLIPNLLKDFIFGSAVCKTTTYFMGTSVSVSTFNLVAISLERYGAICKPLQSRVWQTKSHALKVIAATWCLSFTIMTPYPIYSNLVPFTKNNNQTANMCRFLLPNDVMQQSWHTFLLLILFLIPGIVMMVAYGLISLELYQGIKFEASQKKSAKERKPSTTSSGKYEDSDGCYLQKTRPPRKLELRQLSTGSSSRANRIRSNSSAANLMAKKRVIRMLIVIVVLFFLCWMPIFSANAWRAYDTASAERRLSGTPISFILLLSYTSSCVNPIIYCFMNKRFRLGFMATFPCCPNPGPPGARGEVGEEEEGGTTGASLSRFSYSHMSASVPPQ

T2: CCK1R (Homo sapiens, UniProt P32238)
T2 sequence (P32238 1-428): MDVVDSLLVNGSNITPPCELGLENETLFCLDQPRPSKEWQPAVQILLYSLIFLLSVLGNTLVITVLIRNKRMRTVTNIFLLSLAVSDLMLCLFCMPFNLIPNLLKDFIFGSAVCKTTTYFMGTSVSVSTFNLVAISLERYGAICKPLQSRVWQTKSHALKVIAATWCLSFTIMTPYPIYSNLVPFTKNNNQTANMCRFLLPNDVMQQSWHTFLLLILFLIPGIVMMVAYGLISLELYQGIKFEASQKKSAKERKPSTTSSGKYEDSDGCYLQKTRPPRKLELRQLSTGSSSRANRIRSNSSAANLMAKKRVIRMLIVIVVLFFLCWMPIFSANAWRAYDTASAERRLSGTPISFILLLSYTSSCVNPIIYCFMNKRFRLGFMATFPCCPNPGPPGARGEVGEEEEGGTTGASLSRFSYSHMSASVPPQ


Assays:
[1] = target: T1, type 1 cholecystokinin receptor (CCK1R)
CCK1R [2] = target: T2, CCK1R; test: Intracellular calcium assay (Fura-8-AM) in CHO-CCK1R cells; assay type: cell-based; set-up: expressed in transfected cells; conditions: CHO-CCK1R cells, agonist alone; mean ± SEM
Protocol: Biological activity was quantified in the CHO cell lines described above using intracellular calcium assays that were performed, as previously described, using Fura-8-AM (AAT Bioquest, Pleasonton, CA, USA). Full agonist dose–response curves were performed along with determination of maximal responses to 0.1 mM ATP, targeting an endogenous receptor present on the parental cells. Concentration–response curves of peak intracellular calcium responses were analyzed and plotted as percentages of maximal responses using non-linear regression analysis in Prism 9.1 (GraphPad).

CCK1R [3] = target: T2, CCK1R; test: IP-One accumulation TR-FRET assay, agonist format, HEK-293 CCK1R cells; assay type: cell-based; set-up: expressed in transfected cells; host or cells: HEK-293; conditions: for Emax: HEK293, relative to CCK control, average ± SD, read-out: CCK1R Ago (IP-One) Emax
In short: (§1)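 HEK-293 cells overexpressing CCK1R were plated overnight, then given compounds (top 50 µM, 16-point 2-fold) for 30 min at 37 °C. CCK stimulator with 50 mM LiCl (PAM format) or DMSO (agonist format) followed for 1 h. IP-One was read by TR-FRET; activity score = CCK-normalized Emax × pEC50.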

[4] = target: T3, vasopressin-2 receptor (AVP2R) (Homo sapiens, UniProt P30518); test: AVP2R cAMP HTRF accumulation assay; assay type: cell-based; conditions: CHO-K1 AVP2R cells; for AVP2R PAM (cAMP) Score (activity score = normalized Emax × pEC50): PAM format; for EC50 / Emax: PAM format with vasopressin, original hits: agonist and PAM data combined, average ± SD
T3 construct: expressed in transfected cells; host or cells: CHO-K1 (PAM format); HEK-293 (agonist format)
In short: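 CHO-K1 AVP2R cells (PAM format) or HEK-293 AVP2R cells (agonist format) incubated 30 min at room temperature with compounds and vasopressin in HBSS with 5 mM HEPES, 0.5 mM IBMX, 0.075% BSA. cAMP read by HTRF after 30 min; 16-point 2-fold dose–response in duplicate.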

CCK1R [5] = target: T2, CCK1R; test: IP-One accumulation TR-FRET assay, PAM format, HEK-293 CCK1R cells; assay type: cell-based; set-up: expressed in transfected cells; host or cells: HEK-293; conditions: for Emax: HEK293, relative to CCK control; for Emax / CCK1R PAM (IP-One) Score (activity score = normalized Emax × pEC50) / EC50: HEK-293 CCK1R cells; for Emax / CCK1R PAM (IP-One) Score (activity score = normalized Emax × pEC50): PAM format; for Emax / EC50: average ± SD; for EC50: PAM format with EC20 CCK; for CCK1R IP-One activity (in words): PAM and agonist formats
In short: as §1

T3 sequence (P30518 whole entry): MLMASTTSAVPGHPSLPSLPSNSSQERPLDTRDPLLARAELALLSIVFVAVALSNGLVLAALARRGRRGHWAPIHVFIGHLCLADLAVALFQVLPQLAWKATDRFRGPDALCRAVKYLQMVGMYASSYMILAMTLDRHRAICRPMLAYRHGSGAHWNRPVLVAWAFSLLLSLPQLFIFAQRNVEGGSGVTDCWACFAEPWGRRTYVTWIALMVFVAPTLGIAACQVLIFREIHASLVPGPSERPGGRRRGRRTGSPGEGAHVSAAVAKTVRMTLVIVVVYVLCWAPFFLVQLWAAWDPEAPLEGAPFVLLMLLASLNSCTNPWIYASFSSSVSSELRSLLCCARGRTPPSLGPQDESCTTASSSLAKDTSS

Molecule	pEC50 of intracellular calcium response (Fura-8-AM), CHO-CCK1R cells [1]	pEC50 of intracellular calcium response (Fura-8-AM), CHO-CCK1R cells, with 10 µM hit 1 [1]	pEC50 of intracellular calcium response (Fura-8-AM), CHO-CCK1R cells, with 10 µM hit 6 [1]	pEC50 agonist-induced intracellular calcium response (CCK1R [2])	CCK1R Ago (IP-One) Score (activity score = normalized Emax × pEC50) (CCK1R [3])	Emax (CCK1R [3]) [%]	AVP2R PAM (cAMP) Score (activity score = normalized Emax × pEC50) [4]	EC50 [4] [µM]	Emax [4] [%]	Emax (CCK1R [5]) [%]	CCK1R PAM (IP-One) Score (activity score = normalized Emax × pEC50) (CCK1R [5])	EC50 (CCK1R [5]) [µM]	CCK1R IP-One activity (in words) (CCK1R [5])
D-Tyr-Gly-[(Nle^28,31)CCK-26-32]-phenethyl ester (peptide)	7.3	8	8.1										
CCCC[C@H](NC(=O)[C@H](Cc1ccc(OS(=O)(=O)O)cc1)NC(=O)[C@H](CC(=O)O)NC(=O)CNC(=O)[C@H](N)Cc1ccc(O)cc1)C(=O)NCC(=O)N[C@@H](Cc1c[nH]c2ccccc12)C(=O)N[C@@H](CCCC)C(=O)N[C@@H](CC(=O)O)C(=O)OCCc1ccccc1 [CCK-OPE, D-Tyr-Gly-[(Nle^28,31)CCK-26-32]-phenethyl ester, reference compound] (H-[dY]GD[sY][Nle]GW[Nle]D-OCH2CH2Ph; N-terminus assumed)				7.3 ± 0.2									
CN(C)CCNc1ncnc2c1sc1nc(N3CCOCC3)c3c(c12)CCCC3 [CMP-4]					0	0	1.2	12.8 ± 14	24.5 ± 7.1	62 ± 33	2.71	14.4 ± 1.5	
CCCCNc1ncnc2c1sc1nc(N3CCOCC3)c3c(c12)CCCC3 [CMP-48]					0	0	0		0	0	0		None of these analogs showed any CCK1R activity
CCCCc1nc2sc3c(NCCN4CCOCC4)ncnc3c2c2c1CCCC2 [CMP-32]					0		1.67	9.3 ± 11.1	33 ± 26	41 ± 34	1.52	23.9 ± 25.8	
C=CCNc1ncnc2c1sc1nc(N3CCOCC3)c3c(c12)CCCC3 [CMP-50]					0	0	0		0	0	0		None of these analogs showed any CCK1R activity
CC(C)Cc1nc2sc3c(NCCN4CCOCC4)ncnc3c2c2c1CCCC2 [CMP-34]					0		2.13	7.8 ± 4	42 ± 17	34 ± 13	1.50	29 ± 13.1	
OCCN1CCN(c2ncnc3c2sc2nc(-c4ccccc4)c4c(c23)CCC4)CC1 [CMP-37]					0	0	0		0	28 ± 9	1.26	31.7 ± 1.2	loss of activities across all formats
CC(C)Cc1nc2oc3c(NCCN(C)C)ncnc3c2c2c1CCC2 [CMP-21]					0		1.7 and 1.74	22.8 ± 3.8	37 ± 4	45 ± 23	1.9	23.8 ± 10.5	
KAPSGRMSIVKNLQNLDPSHRISDRDYMGWMDF [CCK-33]	9.6	10.7	10.7										

Second part, the molecule after the results:

pEC50 of intracellular calcium response (Fura-8-AM), CHO-CCK1R cells [1]	pEC50 of intracellular calcium response (Fura-8-AM), CHO-CCK1R cells, with 10 µM hit 1 [1]	pEC50 of intracellular calcium response (Fura-8-AM), CHO-CCK1R cells, with 10 µM hit 6 [1]	pEC50 agonist-induced intracellular calcium response (CCK1R [2])	CCK1R Ago (IP-One) Score (activity score = normalized Emax × pEC50) (CCK1R [3])	Emax (CCK1R [3]) [%]	AVP2R PAM (cAMP) Score (activity score = normalized Emax × pEC50) [4]	EC50 [4] [µM]	Emax [4] [%]	Emax (CCK1R [5]) [%]	CCK1R PAM (IP-One) Score (activity score = normalized Emax × pEC50) (CCK1R [5])	EC50 (CCK1R [5]) [µM]	CCK1R IP-One activity (in words) (CCK1R [5])	Molecule
				0	0	2.95	15.3 ± 9.8	61 ± 12	0	0			CCCc1nc2oc3c(NN)ncnc3c2c2c1CCCC2 [CMP-53]
				0	0	1.46	37.9 ± 7	33 ± 13	0	0		displayed no effects	O=C(O)CSc1ncnc2c1sc1nc(N3CCOCC3)c3c(c12)CCCC3 [CMP-45]
				0	0	0		0				significantly diminished responses	c1nc(N2CCCC2)c2sc3nc(N4CCOCC4)c4c(c3c2n1)CCCC4 [CMP-64]
